One data set relates to splenocytes. Further details: species or system BALB/c mice. Particulars: mouse, in vivo.
The conditions of data set [1]: mice; for total vitamin E accumulation in adipose tissues: compared to unsupplemented control mice; for δ-T3 concentration in adipose tissue: compared to the rest of the groups.
The next data set concerns IFN-γ. More on the design: species or system BALB/c mice. Particulars: mouse, in vivo.
The mark [2] stands for this setting: 1 mg oral gavage daily for 56 days.

`Cc1c(C)c2c(c(C)c1O)CC[C@@](C)(CCC[C@H](C)CCC[C@H](C)CCCC(C)C)O2` [α-T, α-tocopherol]: in the data set on splenocytes, the “splenocyte proliferative response to Con A” value was “significantly (P<0.05) greater proliferative response” and the “splenocyte proliferative response to TT” value was “significantly (P<0.05) greater proliferative response”. Besides, the “total vitamin E accumulation in adipose tissues” value in data set [1] (setting [2]) is given as “significant (P<0.05) levels of total vitamin E accumulation”. The “α-T (tocopherol) concentration in adipose tissue” value in data set [1] (56 days, compared to the rest of the animal groups) is “significantly (P<0.05) high concentrations of tocopherol”. In addition, the “γ-T3 concentration in adipose tissue” value in data set [1] (56 days, compared to the rest of the animals) is recorded as “did not have any detectable amounts”. In addition, in data set [1] (56 days), the “δ-T3 concentration in adipose tissue” value is given as “did not have any detectable amounts”.
On to `CC(C)=CCC/C(C)=C/CC/C(C)=C/CC[C@]1(C)CCc2cc(O)cc(C)c2O1` [δ-T3, δ-tocotrienol], for which the “IFN-γ production following Con A stimulation compared to α-T treated mice” value in the data set with IFN-γ was “significant (P<0.05) increase”. Also, in the data set on splenocytes, the “splenocyte proliferation, comparison between vitamin E treated groups” value is on record as “slightly increased”; the “splenocyte proliferative response to Con A” value was “significantly (P<0.05) greater proliferative response”; the “splenocyte proliferative response to TT” value is given as “significantly (P<0.05) greater proliferative response”. Besides, in data set [1] (1 mg oral gavage daily for 56 days, between supplemented groups), the “total vitamin E levels in adipose tissues, ranking of groups” value is “highest”. The “total vitamin E accumulation in adipose tissues” value in data set [1] (setting [2]) is “significant (P<0.05) levels of total vitamin E accumulation”. In data set [1] (56 days), the “δ-T3 concentration in adipose tissue” value was “highest in the δ-T3 fed animals and the levels were highly significant (P<0.01)”.

The values above are taken from patent US8901168B2 (priority 2007, dated 2014).
